Reference: patent US20060122279A1, “Hydrophobic polyamine amides as potent lipopolysaccharide sequestrants” (priority 2004, published 2006)
Values joined by “and” are separate entries in the source; they are usually repeats but may differ in a detail not shown here. Equal values may be shown once. Read-outs that look alike come from different tables or passages of the source.

What was measured:
NFκB = NFκB inhibition (LPS-induced); type: cell-based; conditions: for IC50: Table 7 focused library, NFκB inhibition, read-out: NFκ B
Excerpt: A focused library of alkyl or acyl c-substituted lysine-spermine conjugates is synthesized with even carbon-numbered chains of C14 to C20 lengths. […] Furthermore, the data showhigh activity compounds are those with chain lengths between C16 and C20. […] The exemplary compounds L-Lys-ε-(stearoyl)-N^1-spermine, D-Lys-ε-(stearoyl)-N^1-spermine, L-Lys-ε-(octadecanyl)-N^1-spermine and D-Lys-ε-(octadecanyl)—N1-spermine all show high activity for the prevention of LPS-induced NFκβ cytokine release from stimulated lymphocytes. Furthermore, the exemplary compounds L-Lys-ε-(stearoyl)-N^1-spermine, D-Lys-ε-(stearoyl)-N^1-spermine, L-Lys-ε-(octadecanyl)-N^1-spermine and D-Lys-ε-(octadecanyl)-N^1-spermine all show high activity for the prevention of LPS-induced NO release from stimulated lymphocytes.

[1] = test system: murine macrophage J774.A1 cells; test: Nitric oxide (NO) inhibition in LPS-stimulated J774.A1 cells (Griess); type: cell-based
Method: Murine monocytes (J774.A1 cells) produce measurable quantities of NO on exposure to LPS and provide a model for the rapid assessment of compounds to neutralize LPS activity. […] In all experiments, Polymyxin B (PMB), a decapeptide antibiotic, known to bind and neutralize LPS,^29;47;48 is used as a reference compound.
Nitric oxide production is measured as total nitrite in murine macrophage J774.A1 cells using the Griess reagent system.^53;54 Murine macrophage J774.A1 cells are grown in RPMI-1640 cell-culture medium containing L-glutamine and sodium bicarbonate and supplemented with 10% fetal bovine serum, 1% L-glutamine-penicillin-streptomycin solution, and 200 μg/ml L-arginine at 37° C. in a 5% CO2 atmosphere. Cells are plated at ˜2×10^6/ml in a volume of 40 μl/well, in 384 well, flat-bottomed, cell culture treated microtiter plates until confluency and subsequently stimulated with 100 ng/ml lipopolysaccharide (LPS). Concurrent to LPS stimulation, serially diluted concentrations of test compounds are added to the cell medium and left to incubate overnight for 16 h. Polymyxin B is used as reference compound in each plate. Positive—(LPS stimulation only) and negative-controls (J774.A1 medium only) are included in each experiment. Nitrite concentrations are measured adding 30 μl of supernatant to equal volumes of Griess reagents (50 μl/well; 0.1% NED solution in ddH2O and 1% sulfanilamide, 5% phosphoric acid solution in ddH2O) and incubating for 15 minutes at room temperature in the dark. Absorbance at 535 nm is measured using a Molecular Devices Spectramax M2 multifunction plate reader (Sunnyvale, Calif.). Nitrite concentrations are interpolated from standard curves obtained from serially diluted sodium nitrite standards.

[2] = type: binding, E. coli 0111:B4; conditions: for EC50: E. coli 0111:B4 LPS, Tables 1-3, read-out: ED50 (half-maximal effective displacement of BC probe from LPS)
Method: Polymyxin B (PMB), a peptide antibiotic known to bind and neutralize LPS^47 serves as the positive control and reference compound for every plate, enabling the quantitative assessment of repeatability and reproducibility (CV and Z′ factors) for the assay. Robotic liquid handling is performed on a Precision 2000 automated microplate pipetting system, programmed using the Precision Power software, Bio-Tek Instruments Inc., VT, USA. Stock solutions of LPS (5 mg/ml; E. coli 0111:B4; procured from Sigma) and BC (500 μM) are prepared in Tris buffer (pH 7.4, 50 mM). 1 ml each of the LPS and BC stocks are mixed and diluted in Tris buffer to a final volume of 100 ml, yielding final concentrations of 50 μg/ml of LPS and 5 μM BC. 40 μl of this BC:LPS mixture is added to each well of the plate using the Precision 2000. Fluorescence measurements are made at 25° C. on a Fluoromax-3 with Micromax Microwell 384-well plate reader, using DataMax software, Jobin Yvon Inc., N.J. The BC excitation wavelength is 580 nm, emission spectra are taken at 620 nm with both emission and excitation monochromator bandpasses set at 5 nm.

CF-1 mice = conditions: previous studies (ref. 37); cited from earlier work
[3] = J774.A1 cells, 100 ng/ml LPS, 16 h, Tables 1-3, read-out: NO IC50
[4] = Mus musculus, J774.A1, Table 7 focused library, NO inhibition, read-out: NO

| SMILES | IC50 (NFκB) [µM] | prevention of LPS-induced NFκβ cytokine release from stimulated lymphocytes (NFκB; in words) | IC50 [1, 3] [µM] | IC50 [1, 4] [µM] | prevention of LPS-induced NO release from J774.A1 macrophages ([1]; in words) | EC50 [2] | IC50 ([1]; read-out: NO IC50, J774.A1 cells, 100 ng/ml LPS, 16 h, Tables 1-3) [µM] | IC50 ([1]; Mus musculus, J774.A1, 16 h, J774.A1 cells, 100 ng/ml LPS, 16 h, Tables 1-3, read-out: NO IC50) [µM] | IC50 ([2]; b47, cis-unsaturated vs saturated alkyl) [µM] | window of protection (CF-1 mice) [min] |
| --- | --- | --- | --- | --- | --- | --- | --- | --- | --- | --- |
| CCCCCCCCCCCCCCCCCC(=O)NCCCCC(N)C(=O)NCCCNCCCCNCCCN [Compound 9, L-Lys-ε-(stearoyl)-N^1-spermine] | 0.736 | high activity | 18.1 | 8.78 | high activity | 16 µM and 16.4 µM |  |  |  |  |
| CCCCCCCCCCCCCCCC(=O)NCCCCC(N)C(=O)NCCCNCCCCNCCCN [Compound 14, L-Lys(palmitoyl)-N^1-spermine] | 0.819 |  | 6.41 | 16.8 |  | 11 µM and 10.7 µM | 6.4 |  |  |  |
| CCCCCCCCCCCCCC(=O)NCCCCC(N)C(=O)NCCCNCCCCNCCCN [Compound 16, L-Lys-ε-(myristoyl)-N^1-spermine] | 0.753 |  |  | 22.2 |  | 5.63 µM |  | 1.6 |  |  |
| CCCCCCCCCCCCCCCCNCCCCC(N)C(=O)NCCCNCCCCNCCCN [Compound 26, L-Lys-ε-(“hexadecyl)-N^1-spermine] | 0.19 |  |  | 3.78 |  | 5.6 µM and 5.56 µM |  |  | 5.6 |  |
| CCCCCCCC/C=C\CCCCCCCC(=O)OCC(COC(=O)CCCCCCC/C=C\CCCCCCCC)NC(=O)C(CCCNCCCN)NCCCN (centres unmarked) [DOSPER] |  |  |  |  |  |  |  |  |  | 15 |
